Results reported in US20100099561A1, “HETEROBICYCLIC ALKYLTHIO-BRIDGED ISOXAZOLINES” (E.I. DU PONT DE NEMOURS AND COMPANY, priority 2008, published 2010).

Legend:
Assay type in all cases: in vivo
corn (Zea mays) [1] = assay: Test A preemergence, corn; settings: 0 to 100 scale (0 no effect, 100 complete control)
Outline: (§1)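 Pre: directed soil spray after sowing in loam/sand. Post: seedlings at 1–2 leaf stage, 2–10 cm. Vehicle: non-phytotoxic solvent mix + surfactant. Greenhouse ~10 d; visual injury 0–100 vs untreated controls.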

[2] = tested on: pigweed (Amaranthus retroflexus); assay: Test A preemergence, pigweed; settings: 0 to 100 scale (0 no effect, 100 complete control)
Outline: as §1

corn (Zea mays) [3] = assay: Test A postemergence, corn; settings: 0 to 100 scale (0 no effect, 100 complete control)
Outline: as §1

[4] = tested on: morningglory (Ipomoea spp.); assay: Test A preemergence, morningglory; settings: 0 to 100 scale (0 no effect, 100 complete control)
Outline: as §1

[5] = tested on: barnyardgrass (Echinochloa crus-galli); assay: Test A postemergence, barnyardgrass; settings: 0 to 100 scale (0 no effect, 100 complete control)
Outline: as §1

[6] = tested on: pigweed (Amaranthus retroflexus); assay: Test A postemergence, pigweed; settings: 0 to 100 scale (0 no effect, 100 complete control)
Outline: as §1

rice (Oryza sativa) = assay: Test B flooded paddy test, rice; settings: Flood, scale 0 to 100
Outline: (§2)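 2-leaf plants; pots flooded 3 cm above soil; compound added to paddy water; depth maintained. Greenhouse 13–15 d. Visual rating vs controls, 0 (no effect) to 100 (complete control); dash = no result.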

[7] = tested on: large crabgrass (Digitaria sanguinalis); assay: Test A preemergence, large crabgrass; settings: 0 to 100 scale (0 no effect, 100 complete control)
Outline: as §1

[8] = tested on: velvetleaf (Abutilon theophrasti); assay: Test A postemergence, velvetleaf; settings: 0 to 100 scale (0 no effect, 100 complete control)
Outline: as §1

[9] = tested on: large crabgrass (Digitaria sanguinalis); assay: Test A postemergence, large crabgrass; settings: 0 to 100 scale (0 no effect, 100 complete control)
Outline: as §1

[10] = tested on: wheat (Triticum aestivum); assay: Test A postemergence, wheat; settings: 0 to 100 scale (0 no effect, 100 complete control)
Outline: as §1

[11] = tested on: velvetleaf (Abutilon theophrasti); assay: Test A preemergence, velvetleaf; settings: 0 to 100 scale (0 no effect, 100 complete control)
Outline: as §1

[12] = tested on: barnyardgrass (Echinochloa crus-galli); assay: Test B flooded paddy test, barnyardgrass; settings: Flood
Outline: as §2

[13] = tested on: giant foxtail (Setaria faberi); assay: Test A postemergence, giant foxtail; settings: 0 to 100 scale (0 no effect, 100 complete control)
Outline: as §1

[14] = tested on: morningglory (Ipomoea spp.); assay: Test A postemergence, morningglory; settings: 0 to 100 scale (0 no effect, 100 complete control)
Outline: as §1

[15] = tested on: barnyardgrass (Echinochloa crus-galli); assay: Test A preemergence, barnyardgrass; settings: 0 to 100 scale (0 no effect, 100 complete control)
Outline: as §1

[16] = tested on: giant foxtail (Setaria faberi); assay: Test A preemergence, giant foxtail; settings: 0 to 100 scale (0 no effect, 100 complete control)
Outline: as §1

[17] = tested on: umbrella sedge (Cyperus difformis); assay: Test B flooded paddy test, umbrella sedge; settings: Flood, scale 0 to 100
Outline: as §2

[18] = tested on: ducksalad (Heteranthera limosa); assay: Test B flooded paddy test, ducksalad; settings: Flood, scale 0 to 100
Outline: as §2

[19] = tested on: wheat (Triticum aestivum); assay: Test A preemergence, wheat; settings: 0 to 100 scale (0 no effect, 100 complete control)
Outline: as §1

[20] = 250 g ai/ha, scale 0 to 100 (0 no effect, 100 complete control)

CC1(C)CC([S+]([O-])Cc2c(C(F)(F)F)nc3ccon3c2=O)=NO1 (stereo not shown) [Compound 43]
20: Plant response rating, Sedge, Umbrella ([17]; 125 g ai/ha)
25: Plant response rating, Ducksalad ([18]; 250 g ai/ha)
30: Plant response rating, Foxtail, Giant ([13]; 125 g ai/ha) | Plant response rating, Sedge, Umbrella ([17]; 250 g ai/ha)
40: Plant response rating, Corn (corn (Zea mays) [3]; 500 g ai/ha) | Plant response rating, Barnyardgrass ([5]; 125 g ai/ha) | Plant response rating, Morningglory ([14]; 500 g ai/ha)
70: Plant response rating, Barnyardgrass ([5]; 500 g ai/ha) | Plant response rating, Foxtail, Giant ([13]; 500 g ai/ha) | Plant response rating, Barnyardgrass ([15]; 500 g ai/ha)
0: Plant response rating, Corn (corn (Zea mays) [1]; 125 g ai/ha) | Plant response rating, Corn (corn (Zea mays) [1]; 500 g ai/ha) | Plant response rating, Pigweed ([2]; 125 g ai/ha) | Plant response rating, Pigweed ([2]; 500 g ai/ha) | Plant response rating, Corn (corn (Zea mays) [3]; 125 g ai/ha) | Plant response rating, Morningglory ([4]; 125 g ai/ha) | Plant response rating, Morningglory ([4]; 500 g ai/ha) | Plant response rating, Pigweed ([6]; 125 g ai/ha) | Plant response rating, Pigweed ([6]; 500 g ai/ha) | Plant response rating, Rice (rice (Oryza sativa); 31 g ai/ha) | Plant response rating, Rice (rice (Oryza sativa); 62 g ai/ha) | Plant response rating, Rice (rice (Oryza sativa); 125 g ai/ha) | Plant response rating, Rice (rice (Oryza sativa); 250 g ai/ha) | Plant response rating, Crabgrass, Large ([7]; 125 g ai/ha) | Plant response rating, Velvetleaf ([8]; 125 g ai/ha) | Plant response rating, Velvetleaf ([8]; 500 g ai/ha) | Plant response rating, Wheat ([10]; 125 g ai/ha) | Plant response rating, Wheat ([10]; 500 g ai/ha) | Plant response rating, Velvetleaf ([11]; 125 g ai/ha) | Plant response rating, Velvetleaf ([11]; 500 g ai/ha) | Plant response rating, Barnyardgrass ([12]; 31 g ai/ha, scale 0 to 100) | Plant response rating, Barnyardgrass ([12]; 62 g ai/ha, scale 0 to 100) | Plant response rating, Barnyardgrass ([12]; 125 g ai/ha, scale 0 to 100) | Plant response rating, Barnyardgrass [12, 20] | Plant response rating, Morningglory ([14]; 125 g ai/ha) | Plant response rating, Foxtail, Giant ([16]; 125 g ai/ha) | Plant response rating, Sedge, Umbrella ([17]; 31 g ai/ha) | Plant response rating, Sedge, Umbrella ([17]; 62 g ai/ha) | Plant response rating, Ducksalad ([18]; 31 g ai/ha) | Plant response rating, Ducksalad ([18]; 62 g ai/ha) | Plant response rating, Ducksalad ([18]; 125 g ai/ha) | Plant response rating, Wheat ([19]; 125 g ai/ha) | Plant response rating, Wheat ([19]; 500 g ai/ha)
60: Plant response rating, Crabgrass, Large ([7]; 500 g ai/ha) | Plant response rating, Crabgrass, Large ([9]; 500 g ai/ha)
10: Plant response rating, Crabgrass, Large ([9]; 125 g ai/ha) | Plant response rating, Barnyardgrass ([15]; 125 g ai/ha)
80: Plant response rating, Foxtail, Giant ([16]; 500 g ai/ha)

CC1(C)CC([S+]([O-])Cc2c(C(F)(F)F)nc3n(c2=O)CCCO3)=NO1 (stereo not shown) [Compound 3]
20: Plant response rating, Velvetleaf ([8]; 125 g ai/ha) | Plant response rating, Crabgrass, Large ([9]; 125 g ai/ha)
30: Plant response rating, Pigweed ([6]; 500 g ai/ha) | Plant response rating, Barnyardgrass ([15]; 125 g ai/ha)
70: Plant response rating, Crabgrass, Large ([7]; 500 g ai/ha) | Plant response rating, Foxtail, Giant ([16]; 500 g ai/ha)
0: Plant response rating, Corn (corn (Zea mays) [1]; 125 g ai/ha) | Plant response rating, Corn (corn (Zea mays) [1]; 500 g ai/ha) | Plant response rating, Corn (corn (Zea mays) [3]; 125 g ai/ha) | Plant response rating, Corn (corn (Zea mays) [3]; 500 g ai/ha) | Plant response rating, Morningglory ([4]; 125 g ai/ha) | Plant response rating, Morningglory ([4]; 500 g ai/ha) | Plant response rating, Barnyardgrass ([5]; 125 g ai/ha) | Plant response rating, Pigweed ([6]; 125 g ai/ha) | Plant response rating, Rice (rice (Oryza sativa); 62 g ai/ha) | Plant response rating, Rice (rice (Oryza sativa); 250 g ai/ha) | Plant response rating, Wheat ([10]; 125 g ai/ha) | Plant response rating, Wheat ([10]; 500 g ai/ha) | Plant response rating, Velvetleaf ([11]; 125 g ai/ha) | Plant response rating, Velvetleaf ([11]; 500 g ai/ha) | Plant response rating, Barnyardgrass ([12]; 62 g ai/ha, scale 0 to 100) | Plant response rating, Barnyardgrass [12, 20] | Plant response rating, Foxtail, Giant ([13]; 125 g ai/ha) | Plant response rating, Morningglory ([14]; 125 g ai/ha) | Plant response rating, Morningglory ([14]; 500 g ai/ha) | Plant response rating, Sedge, Umbrella ([17]; 62 g ai/ha) | Plant response rating, Sedge, Umbrella ([17]; 250 g ai/ha) | Plant response rating, Ducksalad ([18]; 62 g ai/ha) | Plant response rating, Wheat ([19]; 125 g ai/ha) | Plant response rating, Wheat ([19]; 500 g ai/ha)
50: Plant response rating, Barnyardgrass ([5]; 500 g ai/ha) | Plant response rating, Crabgrass, Large ([7]; 125 g ai/ha) | Plant response rating, Velvetleaf ([8]; 500 g ai/ha) | Plant response rating, Crabgrass, Large ([9]; 500 g ai/ha) | Plant response rating, Foxtail, Giant ([13]; 500 g ai/ha)
60: Plant response rating, Pigweed ([2]; 500 g ai/ha) | Plant response rating, Barnyardgrass ([15]; 500 g ai/ha)
40: Plant response rating, Pigweed ([2]; 125 g ai/ha) | Plant response rating, Foxtail, Giant ([16]; 125 g ai/ha) | Plant response rating, Ducksalad ([18]; 250 g ai/ha)
